Positions of bridges follow the written chain, without caps; N, C: chain ends. Residues, ends and D or L forms follow the SMILES beside them. *: point of attachment. FITC = O=C1OC2(c3ccc(O)cc3Oc3cc(O)ccc32)c2ccc(NC(=S)*)cc21; Ahx = NCCCCCC(=O)O
Key:
[1] = test system: HA-GPR55; assay: confocal co-localization of FITC-P1 with HA-GPR55 in HeLa cells; type: cell-based, human; settings: 40 μg/ml (26.8 μM) FITC-P1, 1 h, live HeLa cells overexpressing HA-GPR55
Experimental: HEK293 or CHO cells were rinsed with PBS, fixed for 10 min at room temperature in 4% (v/v) paraformaldehyde, and permeabilized in 0.02% saponin, 0.5% BSA, and 50 mM ammonium chloride in PBS (blocking solution). Then, the cells were stained with an anti-HA antibody (1:1,000) for 1 h at room temperature for GPR55 visualization, followed by 30 min at room temperature with Alexa488- or Alexa568-conjugated anti-mouse secondary antibodies (1:800), with 33 nM Alexa546-labeled phalloidin (Life Technologies) for filamentous actin visualization, or 2 μg/ml Hoechst (Sigma) for nuclei staining, with all reagents diluted in blocking solution. Then, the cells were washed three times with PBS plus 0.02% Tween-20, and the coverslips were mounted and examined by confocal microscope (LSM 510; Zeiss, Germany), with images acquired using the ZEN 2.1 (black) program (Carl Zeiss Microscopy GmbH 1997-2015). For localization studies of FITC-P1 and GPR55 in live HeLa cells, the cells were incubated with an anti-HA antibody (1:1,000) in PBS plus 3% BSA for 1 h on ice, then washed with PBS, and incubated with an Alexa568-conjugated anti-mouse secondary antibody (1:800) in PBS plus 3% BSA for 45 min on ice. The cells were then incubated with FITC-P1 as reported, fixed for 10 min in 4% (v/v) paraformaldehyde, and examined by confocal microscopy, as above.

[2] = biological target: T1, immunoprecipitated HA-GPR55 (Homo sapiens, UniProt Q9Y2T6); assay: FITC-peptide binding to immunoprecipitated HA-GPR55; settings: FITC-P1 40 μg/ml (26.8 μM), 2 h at 37°C; three independent experiments in triplicate
T1 construct: expressed in transfected cells; host or cells: HeLa cells, transient transfection; anti-HA immunoprecipitate on beads
T1 sequence (Q9Y2T6 whole entry): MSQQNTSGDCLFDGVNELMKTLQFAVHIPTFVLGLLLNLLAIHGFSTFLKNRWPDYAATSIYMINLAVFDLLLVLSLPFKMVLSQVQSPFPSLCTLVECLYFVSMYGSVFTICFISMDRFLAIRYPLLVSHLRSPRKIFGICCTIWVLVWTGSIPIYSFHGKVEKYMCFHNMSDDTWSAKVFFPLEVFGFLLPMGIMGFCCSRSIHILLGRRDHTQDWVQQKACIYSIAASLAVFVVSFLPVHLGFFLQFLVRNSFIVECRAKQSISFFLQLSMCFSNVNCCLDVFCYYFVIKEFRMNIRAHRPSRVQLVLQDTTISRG

[3] = test system: GPR55 (HeLa cells); assay: FITC-peptide binding to HeLa cells silenced for GPR55 (siRNA, shRNA) or re-expressing HA-GPR55 (FACS); parameters: species or system human; settings: 40 μg/ml, 1 h at 37°C
Experimental: For transient interference of GPR55, HeLa cells were plated at 150,000 cells/6-well plate in growth medium without antibiotics, and 24 h later they were transfected with 75 pmol/well non-targeting #2 siRNA (siNT) or human GPR55-targeting siRNAs (D-00581-05) (siGPR55) (siGENOME, Dharmacon, Chicago, IL, USA), using Lipofectamine 2000, according to the manufacturer instructions. Twenty-four hours later, the cells were detached by trypsinization, plated again at 150,000 cells/6-well plate, and 10 h later they were re-transfected with siNT or with siGPR55. Forty-eight hours later, the cells were analyzed. For stable interference of GPR55, HeLa cells were transfected with 1.7 μg/well OmicsLink shRNA expression clone CSHCTR001-CU6 (shCtrl) or clone HSH022476-3-CU6 (shGPR55) from GeneCopoeia (Rockville, MD, USA), using Lipofectamine 2000, according to the manufacturer instructions. Forty-eight hours after transfection, HeLa clones stably expressing shRNAs were selected in growth medium containing 0.3 μg/ml puromycin.
Wild-type HeLa cells plated at a density of 150,000 cells/6-well plate, or cells stable interfered with shCtrl and shGPR55 plated at a density of 120,000 cells/6-well plate, or HeLa cells transiently interfered (48 h after the first interference) were washed twice with HBSS^++, and incubated with the indicated concentrations of the FITC-labeled peptides for the indicated times at 37°C in 1 ml HBSS^++ plus 0.1% fatty-acid-free BSA and 25 mM HEPES, pH 7.5. Then, the cells were washed twice with PBS plus 0.01% Tween-20, and once with PBS, and incubated for 5 min at 37°C with PBS with 2 mM EDTA, detached by scraping, and resuspended in PBS plus 3% BSA. Cell-associated FITC fluorescence was evaluated using FACS, after addition of 4 μg/ml propidium iodide, to exclude dead cells from the FACS gating. Fluorescence intensity was evaluated as % FITC-positive cells and mean fluorescence, recorded before (for peptide binding) and after (for peptide internalization) addition of 0.2% trypan blue to quench the fluorescence of the extracellular bound peptides.

[4] = test system: EHEB cells; assay: growth of EHEB cells (cell counting); type: cell-based, human; settings: ML-191 0.5 μM, 96 h
Experimental: (§1) HEK293 cells were bought in 2012, from the American Type Culture Collection (ATCC catalogue number: CRL-11268), and were grown in monolayers in DMEM supplemented with 10% FBS, 2 mM L-glutamine, 100 U/ml penicillin, and 100 μg/ml streptomycin. HeLa cells were received from Dr. D. Corda, Institute of Protein Biochemistry, CNR, Naples, which were bought in 2006 from the European Collection of Cell Culture (ECACC catalog number: 93021013). Wild-type HeLa cells were maintained in MEM with 10% FBS, 2 mM L-glutamine, 100 U/ml penicillin, 100 μg/ml streptomycin, and nonessential amino acids (i.e., 100 μM glycine, L-alanine, L-asparagine, L-aspartic acid, L-glutamic acid, L-proline, L-serine). The HeLa clones were selected in the presence of 0.3 μg/ml puromycin. CHO cells were received from Dr. D. Corda, and were grown in DMEM supplemented with 10% FBS, 2 mM L-glutamine, 100 U/ml penicillin, 100 μg/ml streptomycin, and nonessential amino acids. EHEB cells are an Epstein-Barr-virus-immortalized cell line that was established from a chronic lymphocytic leukemia patient, and these were purchased from DSMZ (Deutsche Sammlung von Mikroorganismen und Zellkulturen GmbH, Braunschweig, Germany). DeFew cells are a non-Hodgkin lymphoma cell line, and these were obtained from Prof. G. Scala, ‘Magna Graecia’ University of Catanzaro [46–48]. Both of these human B-lymphoblastoid cell lines were maintained in RPMI 1640 with 10% heat-inactivated (30 min at 55°C) FBS, 2 mM L-glutamine, 100 U/ml penicillin, and 100 μg/ml streptomycin, and were routinely tested for BCR expression and anti-IgG stimulation, according to previous studies. All of the cells were grown in a humidified atmosphere of 5% CO2 and at 37°C return.
(§2) The EHEB cell growth rate was evaluated by cell counting. EHEB and DeFew cells were plated into 24-well plates in 400 μl growth medium at a density of 25,000 cells/ml. The cells were grown in the absence and presence of different agents, which were added immediately after cell plating and replenished every 24 h. Every 24 h, the cells were put through independent and blinded counts in triplicate, using a Neubauer cell-counting chamber. After 48 h, the cells were diluted 1:2 with fresh medium and 400 μl were transferred in a new 24-well for the following peptide additions. At 96 h, the cells were counted with 0.2% trypan blue, to determine cell viability.

[5] = test system: EHEB cells; assay: annexin-V staining of EHEB cells (FACS); type: cell-based, human; settings: biotinylated P1 1 μg/ml alone or streptavidin-bound; ML-191 0.5 μM
Text: In parallel, for analysis of apoptosis markers, 200,000 cells/sample were harvested, washed in PBS, stained with fluorescent annexin V using human annexin V-FITC kits (Bender MedSystems GmbH, Vienna, Austria), according to the manufacturer instructions, and analyzed by FACS.

[6] = test system: DeFew cells; assay: growth of DeFew cells (cell counting); type: cell-based, human; settings: ML-191 0.5 μM, 96 h
Experimental: as §1, §2

Row | Compound | co-localization with GPR55 [1] | binding to glycosylated versus deglycosylated GPR55 [2] | decrease in binding, siGPR55 relative to siNT ([3]; 50% reduction in GPR55 expression, four independent experiments) [%] | less binding to shGPR55 HeLa clones relative to shCtrl ([3]; 90% decrease in GPR55 mRNA, three independent experiments) [%] | increase in binding on GPR55 re-expression in shGPR55 clones versus empty vector ([3]; three independent experiments) [%] | Cell counts/ml ([4]; replenished every 24 h, DMSO 801 ±18, means ±SEM, n = 4 in duplicate, p <0.01) | Growth inhibition ([4]; relative to DMSO-treated cells) | annexin V cell decoration [5] | Cell counts/ml ([6]; replenished every 24 h, DMSO 1053 ±41, means ±SEM, n = 4 in duplicate, p <0.01) | Growth inhibition ([6]; relative to DMSO-treated cells)
1 | CC(C)C[C@@H]1NC(=O)[C@H]([C@@H](C)O)NC(=O)[C@@H]2CCCN2C(=O)[C@H](CO)NC(=O)[C@H](CC(N)=O)NC(=O)[C@H](CCCCN)NC(=O)[C@H](CCCCN)NC(=O)[C@@H](NC(=O)CCCCCNC(=S)Nc2ccc3c(c2)C(=O)OC32c3ccc(O)cc3Oc3cc(O)ccc32)CSSC[C@@H](C(=O)O)NC1=O [FITC-P1] ({FITC-Ahx}-CKKNSPTLC-OH; disulfide 1-9; N-terminus and C-terminus assumed) | distributed at the membrane level, with evident spots of co-localization | bound equally to both glycosylated and deglycosylated GPR55-immunoprecipitates | 26 | 34 | 25 |  |  |  |  | 
2 | Cc1ccc(C2(C(=O)N3CCC(n4nc(-c5ccccc5)oc4=O)CC3)CC2)cc1 [ML-191] |  |  |  |  |  | 578 ±49 ×1,000 | (28%) | did not increase annexin V cell decoration, similar to ML-191 | 650 ±51 ×1,000 | (38%)
